The source made the active and inactive calls. No cut-off for these calls is given here.

Assay [1] relates to Mus musculus. Briefly: Antidepressant activity in Mus musculus Kunming (mouse) assessed as decrease in immobility time at 40 mg/kg, po administered 30 min prior to testing measured for 6 min by tail suspension test (reference value: 110.67 +/- 11.52 secs). The assay is classed as functional.
Assay [2] deals with Mus musculus. The assay can be described thus: Antidepressant activity in Mus musculus Kunming (mouse) assessed as immobility time at 40 mg/kg, po administered 30 min prior to testing measured for 6 min by forced swimming test (reference value: 177.67 +/- 10.88 secs). The assay is classed as functional.

Take `CCCCCCCCOc1ccc2c(c1)CCc1nnnn1-2`: the Time was 107.5 s with Mus musculus [1] and 172.83 s with Mus musculus [2].
As for `Brc1ccccc1COc1ccc2c(c1)CCc1nnnn1-2`, the Time with Mus musculus [1] is given as 20 s; in the assay with Mus musculus [2], 65.17 s.
The like results for `CCCCCOc1ccc2c(c1)CCc1nnnn1-2` were, in that order, 20 s and 135.67 s.
On to `CCCCCCCOc1ccc2c(c1)CCc1nnnn1-2`, for which the Time with Mus musculus [1] is 20 s; with Mus musculus [2], 170.5 s.
Regarding `Clc1ccccc1COc1ccc2c(c1)CCc1nnnn1-2`, the Time in the assay on Mus musculus [1] came to 20 s; in the assay on Mus musculus [2], 65.17 s.
On to `Fc1ccc(COc2ccc3c(c2)CCc2nnnn2-3)cc1`, for which, in the assay with Mus musculus [2], the Time was 65.17 s.
For `Fc1cccc(COc2ccc3c(c2)CCc2nnnn2-3)c1`, the results for the Time in the assay on Mus musculus [1] and in the assay with Mus musculus [2] were 20 s and 65.17 s, respectively.
For `Clc1ccc(COc2ccc3c(c2)CCc2nnnn2-3)cc1`, in the assay with Mus musculus [1], the Time stood at 20 s.
Regarding `Cc1ccc(COc2ccc3c(c2)CCc2nnnn2-3)cc1`, the Time in the assay on Mus musculus [2] amounted to 65.17 s.
In the case of `COc1ccc(COc2ccc3c(c2)CCc2nnnn2-3)cc1`, the results for the Time in the assay with Mus musculus [1] and with Mus musculus [2] were 20 s and 65.17 s, respectively.
With `Clc1cccc(COc2ccc3c(c2)CCc2nnnn2-3)c1`, in the assay with Mus musculus [2], the Time is on record as 65.17 s.
Take `CCCOc1ccc2c(c1)CCc1nnnn1-2`: the Time came out at 93 s with Mus musculus [1] and 181.5 s with Mus musculus [2].
The matching figures for `Nc1ccc(COc2ccc3c(c2)CCc2nnnn2-3)cc1`: 98.5 s and 178 s.
On to `CCCCOc1ccc2c(c1)CCc1nnnn1-2`, for which the Time in the assay on Mus musculus [1] stood at 20 s.
Turning to `CNCCC(Oc1ccc(C(F)(F)F)cc1)c1ccccc1` (configuration not stated) [FLUOXETINE], the result with Mus musculus [1] was Active. Further, the Time in the assay with Mus musculus [2] is recorded as 93.17 s.
As to `Fc1ccccc1COc1ccc2c(c1)CCc1nnnn1-2`, the Time with Mus musculus [1] was found to be 20 s.
Regarding `Brc1cccc(COc2ccc3c(c2)CCc2nnnn2-3)c1`, in the assay on Mus musculus [1], the Time was found to be 20 s.
For `c1ccc(COc2ccc3c(c2)CCc2nnnn2-3)cc1`, the Time in the assay on Mus musculus [1] is given as 20 s; in the assay on Mus musculus [2] it was 95.17 s.
As to `CCCCCCOc1ccc2c(c1)CCc1nnnn1-2`, in the assay with Mus musculus [2], the Time was 133.5 s.
Take `CCOc1ccc2c(c1)CCc1nnnn1-2`: the values for the Time in the assay on Mus musculus [1] and in the assay with Mus musculus [2] were 108.17 s and 179.83 s, respectively.

The record behind these values is ChEMBL document CHEMBL3045578, “Synthesis and study of the antidepressant activity of novel 4,5-dihydro-7-alkoxy(phenoxy)-tetrazolo[1,5-a]quinoline derivatives” (2012).
